Measured values reported in patent publication US20240366648A1, “NAD-AUGMENTATION THERAPY FOR PARKINSON'S DISEASE” (Vestlandets Innovasjonsselskap AS (VIS), priority 2021, published 2024).

System: cerebral NAD
Assay: 31P-MRS of the brain, phase I trial of oral NR in newly diagnosed PD patients
Format: in vivo, human
Procedure: A trial of tolerability and cerebral bioavailability of NAD supplementation therapy with nicotinamide riboside (“NR”), provided in the form of nicotinamide riboside chloride ([…]® from Chromadex) in PD patients was completed. In the trial, 30 individuals with newly diagnosed, drug naïve PD were randomized and given NR 500 mg×2/day or placebo for a period of 30 days. 31P-MRS was performed at baseline (Visit 1) and at on the last day of treatment (Visit 2). The scans of 27 individuals passed quality control at both visits. A single-center, double-blinded, randomized, placebo-controlled phase I trial of oral NR supplementation in newly diagnosed patients with PD was conducted. […] Due to the early onset, this patient underwent genetic investigation with whole-exome sequencing and SNP-chip based genome-wide copy number variation analysis, which excluded pathogenic mutations in PD-related genes, including PINK1 and PRKN. screening. Patient recruitment, inclusion, and follow-up was carried out by a GCP certified investigator. Sample size of 30 participants was chosen based on previously reported brain metabolic network analyses. Thirty PD patients were randomly assigned (Block size 6, allocation 1:1) to 500 mg NR, provided in the form of nicotinamide riboside chloride ([…]® from Chromadex), or placebo twice per day, 12 hours apart, using the electronic Case Report Form (Viedoc.com). The drug containers were sequentially marked by an independent third party. The […]®) and placebo were provided by ChromaDex, USA. Each NR capsule contained 250 mg of NR. Placebo capsules contained microcrystalline cellulose. The vials and capsules containing NR and placebo were identical in shape, colour, and smell. Study drug compliance was calculated from counting returned number of study capsules and self-reporting. Participants, examining physicians, medical- and research personnel were blinded for the duration of the trial. Sample size was determined by comparing previous literature with respect to the primary objective. At screening for trial entry, candidates underwent physical and neurological examination, brain MRI, and […]. Eligible patients who entered the trial were assessed at baseline (visit 1, V1) and after four weeks of exposure to either NR or placebo (visit 2, V2). At both visits, patients underwent physical and neurological examination, including assessment by the Movement Disorder Society Unified Parkinson's Disease Rating Scale section I-IV (MDS-UPDRS), and biological sampling. MR-PET was performed within one week prior to visit 1, and at visit 2. All participants remained naïve for antiparkinson drugs for the duration of the trial. All clinical assessments were performed by a blinded movement disorders expert. Each patient was examined by the same neurologist at both visits. Methodological details on each procedure are provided below. Safety was monitored through routine clinical blood tests and registration of adverse events. Adverse events (AE) were recorded and scored by the investigative physician. […] The AE relation to the study drug was scored as (1) unrelated, (2) unlikely, (3) possible, (4) probable or (5) definitely. MRI/S was conducted on a 3T Biograph mMR MR-PET scanner (Siemens Healthcare, Germany). Phosphorous MRS (31P-MRS) was performed on a double-resonant transmit/receive 1H/31P volume head-coil (Rapid Biomedical, Germany). […]

NC(=O)c1ccc[n+]([C@@H]2O[C@H](CO)[C@@H](O)[C@H]2O)c1 [NR, nicotinamide riboside]
cerebral NAD levels normalized to ATP-α, visit 2 vs baseline (NR group n=13, oral NR 500 mg x2/day, 30 days, paired t-test p=0.016): highly significant increase | other metabolites detected by 31P-MRS, change between visits (NR group, 30 days): No other detected metabolites exhibited significant change | patients showing an increase in cerebral NAD (MRS-responders) (NR recipients with MRS data, 30 days): 10/13 | patients with cerebral NAD change exceeding 10% of baseline levels (of the 10 MRS-responders among 13 NR recipients): 9 | between visit change (visit 2/visit 1) in NAD/ATP-α ratio, NR vs placebo group (oral NR 500 mg x2/day, 30 days, t-test p=0.025): significantly higher
